According to article PMC1988858, “Nanosensor Detection of an Immunoregulatory Tryptophan Influx/Kynurenine Efflux Cycle” (PLoS Biology, 2007):

Assays:
FLIPW-TCTY = target: T1, FLIPW-TCTY (Escherichia coli, UniProt P0A881); test: FRET ratio (528/485 nm, eCFP excitation 433 nm) titration of purified sensor with L-tryptophan in 20 mM MOPS, pH 7.0, fitted to a single-site binding isotherm.; conditions: n = 3
T1 construct: gene trpR
Description: (§1) The eCFP emission used for the ratio calculation was determined at 485 nm. Protein was diluted to give Venus readouts of 20,000–30,000 at a manual gain of between 70–75. By using the change in FRET ratio upon binding of ligand, affinity constants (K d) were determined by fitting the titration curves to a single-site binding isotherm: [drawing 1] with [L], ligand concentration; n, number of equal binding sites; R, ratio; R apo, ratio in the absence of ligand; and R sat, ratio at saturation with ligand. Three independent protein preparations were analyzed and each protein preparation was analyzed in triplicate.

[1] = system: LAT1-like amino acid exchanger; test: Velocity of intracellular FLIPW-CTYT FRET response by single-cell imaging versus external L-tryptophan in COS-7 cells perfused with Tyrode's buffer, histidine as counterexchange substrate, Michaelis-Menten fit.; format: cell-based; conditions: read-out: affinity of the cells for combined uptake and metabolism of tryptophan
Description: Upon perfusion with 100 μM L-tryptophan, the FRET ratio increased instantaneously, corresponding to rising levels of cytosolic tryptophan. […] This way, cells could be repeatedly loaded with tryptophan and unloaded using histidine (Figure 4A). […] Na^+ independence and BCH sensitivity are characteristic of the transport properties of LAT1- and LAT2-like amino acid counterexchangers. […] LAT2 is expressed in the proximal tubule of the kidney, so it might be expressed in COS-7 cells. In addition, LAT1 is expressed in various human tumor cell lines and, consequently, is likely to be present in COS-7 cells as well.
According to the FRET theory, an increase in Venus signal is accompanied by a decrease in eCFP signal. Ratio defined as fluorescence intensity quotient obtained with emission filters 535/40 nm over 480/30 nm. […] Error bars indicate standard deviation. […]
Ratio imaging was performed on an inverted fluorescence microscope (DM IRE2, Leica; http://www.leica.com) with a Quant EM digital camera (Photometrics; http://www.photomet.com) and 20× oil immersion, 63× water immersion lenses (HC PL APO 20×/0.7 or HCX PL APO, Leica). Dual emission intensity ratios were simultaneously recorded using a DualView with an OI-5-EM filter set (eCFP 480/30; eYFP 535/40; Optical Insights; http://www.optical-insights.com) and Slidebook 4.2 (Intelligent Imaging Innovations; http://www.intelligent-imaging.com/). […]

LAT1 = target: T2, LAT1 (Homo sapiens, UniProt Q01650); test: Velocity of intracellular FLIPW-CTYT FRET response by single-cell imaging versus external L-tryptophan in human KB cells perfused with Tyrode's buffer, histidine as counterexchange substrate, Michaelis-Menten fit.; format: cell-based; conditions: read-out: affinity of KB cells for combined tryptophan uptake and metabolism under perfusion conditions
T2 construct: gene SLC7A5; endogenous transporter of KB cells expressing cytosolic FLIPW-CTYT sensor
T2 sequence (Q01650 whole entry, the tested form may be a part): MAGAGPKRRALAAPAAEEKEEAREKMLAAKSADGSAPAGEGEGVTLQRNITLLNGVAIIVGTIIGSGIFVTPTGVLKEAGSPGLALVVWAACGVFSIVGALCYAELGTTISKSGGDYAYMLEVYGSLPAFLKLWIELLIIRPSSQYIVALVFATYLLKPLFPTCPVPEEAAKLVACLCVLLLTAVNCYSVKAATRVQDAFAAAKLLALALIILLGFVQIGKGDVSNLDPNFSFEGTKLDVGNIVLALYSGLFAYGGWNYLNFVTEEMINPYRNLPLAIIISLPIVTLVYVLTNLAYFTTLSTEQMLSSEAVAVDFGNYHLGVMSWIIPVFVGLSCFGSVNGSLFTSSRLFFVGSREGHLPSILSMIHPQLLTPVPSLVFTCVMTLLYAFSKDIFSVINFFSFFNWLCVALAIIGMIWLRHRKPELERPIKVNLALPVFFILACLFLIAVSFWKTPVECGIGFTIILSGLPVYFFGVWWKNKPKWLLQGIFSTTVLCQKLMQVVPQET
T2 sequence (P08195 103-630 partner): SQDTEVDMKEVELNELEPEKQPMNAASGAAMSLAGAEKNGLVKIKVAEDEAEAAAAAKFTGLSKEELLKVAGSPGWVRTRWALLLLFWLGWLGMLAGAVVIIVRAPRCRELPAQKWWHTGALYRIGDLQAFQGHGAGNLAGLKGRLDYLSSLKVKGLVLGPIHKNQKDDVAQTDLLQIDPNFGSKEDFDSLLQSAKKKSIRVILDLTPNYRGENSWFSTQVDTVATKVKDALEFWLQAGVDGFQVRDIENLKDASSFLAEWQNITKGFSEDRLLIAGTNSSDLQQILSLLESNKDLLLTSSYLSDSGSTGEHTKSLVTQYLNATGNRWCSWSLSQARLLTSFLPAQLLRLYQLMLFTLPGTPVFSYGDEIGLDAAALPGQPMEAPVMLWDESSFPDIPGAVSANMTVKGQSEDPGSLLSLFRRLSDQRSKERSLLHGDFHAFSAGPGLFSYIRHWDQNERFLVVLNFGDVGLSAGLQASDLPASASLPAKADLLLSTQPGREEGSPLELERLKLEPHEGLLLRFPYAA
Description: KB cells originate from a human oral squamous cell carcinoma and express only LAT1 for uptake of neutral amino acids as shown by reverse-transcriptase (RT)-PCR [37] and RNA interference (RNAi).
According to the FRET theory, an increase in Venus signal is accompanied by a decrease in eCFP signal. Ratio defined as fluorescence intensity quotient obtained with emission filters 535/40 nm over 480/30 nm. (B) Effect of 5 mM BCH inhibitor on the uptake rate of 100 μM L-tryptophan. Error bars indicate standard deviation. […] Error bars indicate standard deviation. […]
Ratio imaging was performed on an inverted fluorescence microscope (DM IRE2, Leica; http://www.leica.com) with a Quant EM digital camera (Photometrics; http://www.photomet.com) and 20× oil immersion, 63× water immersion lenses (HC PL APO 20×/0.7 or HCX PL APO, Leica). Dual emission intensity ratios were simultaneously recorded using a DualView with an OI-5-EM filter set (eCFP 480/30; eYFP 535/40; Optical Insights; http://www.optical-insights.com) and Slidebook 4.2 (Intelligent Imaging Innovations; http://www.intelligent-imaging.com/). […] Fluorescence intensities for eCFP and Venus were typically in the range of 6,000–8,000 and 12,000–16,000, respectively. […]

COS-7 cells [2] = test: Perfusion ratio imaging of tryptophan uptake and exchange in COS-7 cells expressing FLIPW-CTYT (LAT1-like exchanger); format: cell-based; conditions: for Tryptophan export from the cytosol promoted by extracellular amino acid: COS-7 loaded with tryptophan, amino acid at 100 μM; for Effect on uptake rate of 100 μM L-tryptophan: COS-7, inhibitors at 5 mM; for Tryptophan export induced by extracellular tryptophan degradation product: tryptophan-preloaded COS-7 cells, DL-HK 200–1,000 μM
Description: (§2) Cells were cultured at 37 °C and 5% CO2.
Ratio imaging was performed on an inverted fluorescence microscope (DM IRE2, Leica; http://www.leica.com) with a Quant EM digital camera (Photometrics; http://www.photomet.com) and 20× oil immersion, 63× water immersion lenses (HC PL APO 20×/0.7 or HCX PL APO, Leica). […] A Lambda DG4 (Sutter Instruments; http://www.sutter.com) provided excitation light. Images were acquired within the linear detection range of the camera and exposure times varied between 50 and 200 ms, depending on the expression level, with software binning between 2 and 3. Fluorescence intensities for eCFP and Venus were typically in the range of 6,000–8,000 and 12,000–16,000, respectively. Typical background values were around 1,000. Cells were perfused with Tyrode's buffer supplemented with ligands at flow rates of 1.0 ml/min in a vacuum chamber (Vacu-Cell VC-MPC-TW, C&L Instruments; http://www.fluorescence.com/) with a total volume of 0.1 ml. Buffers were exchanged using an eight-way automated ValveBank (AutoMate; http://www.autom8.com/). Inhibitors BCH and α-(methylamino)isobutyric acid (MeIAB) were used at 5 mM concentrations. For determination of the substrate specificity of tryptophan exchange, all 20 amino acids were tested at 100 μM concentrations.

FLIPW-CTY = target: T3, FLIPW-CTY (Escherichia coli, UniProt P0A881); test: In vitro FRET ligand titration of FLIPW-CTY; format: binding, E. coli; conditions: for Kd: 20 mM MOPS pH 7.0, read-out: Affinity of FLIPW-CTY for tryptophan substrates
T3 construct: made in house; host or cells: E. coli BL21(DE3)gold
Description: as §1

FLIPW-CTYT = target: T4, FLIPW-CTYT (Escherichia coli, UniProt P0A881); test: In vitro FRET ligand titration of FLIPW-CTYT; format: binding, E. coli; conditions: for Kd: 20 mM MOPS pH 7.0; for FLIPW-CTYT FRET response or interference with tryptophan binding: in vitro, unpublished data
T4 construct: made in house; host or cells: E. coli BL21(DE3)gold
Description: as §1

KB cells = test: Perfusion ratio imaging of LAT1-mediated tryptophan uptake and exchange in KB cells expressing FLIPW-CTYT; format: cell-based, human; conditions: for Export of intracellular tryptophan upon perfusion (FRET ratio decrease): 100 μM L-His, 200 μM DL-K, 200 μM DL-HK, 1,000 μM HAA
Description: as §2
Ratio imaging was performed on an inverted fluorescence microscope (DM IRE2, Leica; http://www.leica.com) with a Quant EM digital camera (Photometrics; http://www.photomet.com) and 20× oil immersion, 63× water immersion lenses (HC PL APO 20×/0.7 or HCX PL APO, Leica). Dual emission intensity ratios were simultaneously recorded using a DualView with an OI-5-EM filter set (eCFP 480/30; eYFP 535/40; Optical Insights; http://www.optical-insights.com) and Slidebook 4.2 (Intelligent Imaging Innovations; http://www.intelligent-imaging.com/). A Lambda DG4 (Sutter Instruments; http://www.sutter.com) provided excitation light. Images were acquired within the linear detection range of the camera and exposure times varied between 50 and 200 ms, depending on the expression level, with software binning between 2 and 3. Fluorescence intensities for eCFP and Venus were typically in the range of 6,000–8,000 and 12,000–16,000, respectively. Typical background values were around 1,000. Cells were perfused with Tyrode's buffer supplemented with ligands at flow rates of 1.0 ml/min in a vacuum chamber (Vacu-Cell VC-MPC-TW, C&L Instruments; http://www.fluorescence.com/) with a total volume of 0.1 ml. Buffers were exchanged using an eight-way automated ValveBank (AutoMate; http://www.autom8.com/). Inhibitors BCH and α-(methylamino)isobutyric acid (MeIAB) were used at 5 mM concentrations. For determination of the substrate specificity of tryptophan exchange, all 20 amino acids were tested at 100 μM concentrations. Analyses were repeated at least three times with similar results.

COS-7 cells [3] = conditions: read-out: Apparent affinity constant KM for combined transport and metabolism; COS-7, 96-well microplate, Tyrode's buffer
Description: COS-7 cells were grown in Dulbecco's modified Eagle's medium (high glucose; DMEM, Gibco; http://www.invitrogen.com) with 10% fetal calf serum and 50 units (U)/ml penicillin and 50 μg/ml streptomycin (Gibco). […] Cells were cultured at 37 °C and 5% CO2. For imaging, cells were cultured in 8-well LabTekII German tissue culture glass slides (Nalge Nunc International; http://www.nalgenunc.com) and transiently transfected at 50%–70% confluence using Lipofectamine 2000 Reagent (Invitrogen) in Opti-MEM I reduced serum medium (Gibco). After transfection, cells were cultured for 16 h in Opti-MEM I followed by 3 h in growth medium prior to imaging.
Adherent COS-7 cells in 96-well microplates were washed once with 100 μl Tyrode's buffer (119 mM NaCl, 2.5 mM KCl, 2 mM CaCl2, 2 mM MgCl2, 25 mM HEPES, 30 mM glucose, pH 7.3–7.4). The initial FRET ratio was measured by recording the eCFP and Venus emissions at 485 nm and 528 nm, respectively, after excitation of eCFP at 433 nm in a Safire monochromator microplate reader (Tecan). Standard deviation of the initial ratios was less than 10%. After addition of 100 μl tryptophan in Tyrode's buffer the FRET ratio was recorded with 2-min intervals for up to 2 h. Uptake rates were determined from linear parts in the initial FRET change and fitted with the nonlinear regression program Origin 6.1 (OriginLab; http://www.originlab.com).

human LAT1 = system: human LAT1; set-up: method as in PMID 11557028; conditions: LAT1 expressed in oocytes, static conditions; cited from earlier work

With N[C@@H](Cc1c[nH]c2ccccc12)C(=O)O [L-tryptophan] the Kd (FLIPW-TCTY) was 20 µM, the Km [1] was 2.6 µM and the Km (LAT1) was 5.1 µM.

For CC(C)[C@H](N)C(=O)O [valine], the “Tryptophan export from the cytosol promoted by extracellular amino acid” value (shortened to “Tryptophan export … by extracellular amino acid”) (COS-7 cells [2]) was “able to promote tryptophan export”.

In the case of CC(C)C[C@H](N)C(=O)O [leucine], the “Tryptophan export … by extracellular amino acid” value (COS-7 cells [2]) is reported as “able to promote tryptophan export”.

With N[C@@H](Cc1ccc(O)cc1)C(=O)O [tyrosine] the “Tryptophan export … by extracellular amino acid” value (COS-7 cells [2]) was “able to promote tryptophan export”.

With Cc1ccc2[nH]cc(C[C@H](N)C(=O)O)c2c1 [l-5-methyl-tryptophan, 5-methyl-L-tryptophan] the Kd (FLIPW-CTY) was 60 ± 10 µM and the Kd (FLIPW-CTYT) was 25 ± 2 µM.

With N[C@@H](Cc1ccccc1)C(=O)O [phenylalanine] the “Tryptophan export … by extracellular amino acid” value (COS-7 cells [2]) was “able to promote tryptophan export”.

For NC1(C(=O)O)CC2CCC1C2 (centres unmarked) [BCH, 2-aminobicyclo-(2,2,1)-heptane-2-carboxylic acid], the “Effect on LAT1-mediated uptake of 100 μM L-tryptophan” value (KB cells; 5 mM BCH) was “almost completely inhibited” and the “Effect on uptake rate of 100 μM L-tryptophan” value (COS-7 cells [2]) was “decreased the uptake of tryptophan”.

Molecule N[C@@H](Cc1c[nH]c2ccc(O)cc12)C(=O)O [l-5-hydroxy-tryptophan, 5-hydroxy-L-tryptophan] has a Kd (FLIPW-CTY) of 6000 ± 800 µM.

With Nc1ccccc1C(=O)CC(N)C(=O)O (centres unmarked) [K, kynurenine] the “FLIPW-CTYT FRET response or interference with tryptophan binding” value (“FLIPW-CTYT FRET response or interference” for short) (FLIPW-CTYT) was “did not result in a FLIPW-CTYT FRET response”, the “Export of intracellular tryptophan upon perfusion (FRET ratio decrease)” value (“Export … (FRET ratio decrease)” for short) (KB cells) was “exported” and the “Tryptophan export induced by extracellular tryptophan degradation product” value (shortened to “Tryptophan export induced”) (COS-7 cells [2]) was “tryptophan export”.

In the case of Nc1c(O)cccc1C(=O)O [HAA, hydroxy-anthranilic acid], the “FLIPW-CTYT FRET response or interference” value (FLIPW-CTYT) is reported as “did not result in a FLIPW-CTYT FRET response”, the “Export … (FRET ratio decrease)” value (KB cells) is reported as “not” and the “Tryptophan export induced” value (COS-7 cells [2]) is reported as “did not result in tryptophan export”.

In the case of N[C@H](Cc1c[nH]c2ccccc12)C(=O)O [d-tryptophan, D-tryptophan], the Kd (FLIPW-CTY) is reported as 3100 ± 300 µM, the “Concentration for decrease of FRET ratio relative to L-tryptophan” value (FLIPW-CTY; titration of FLIPW-CTY, higher concentrations than L-tryptophan) is reported as “about 5 fold” and the Kd (FLIPW-CTYT) is reported as 1280 ± 100 µM.

N[C@@H](Cc1c[nH]c2ccccc12)C(=O)O [l-tryptophan, L-tryptophan] showed a Kd (FLIPW-CTY) of 220 ± 20 µM, a Kd (FLIPW-CTYT) of 100 ± 14 µM and a Km (COS-7 cells [3]) of 0.88 ± 0.27 µM. For the same molecule, the “Reported affinity of human LAT1 for tryptophan uptake” value (human LAT1) was 21 µM, the “Affinity for combined tryptophan uptake and metabolism” value (KB cells; perfusion conditions) was 5.1 ± 1.0 µM and the “Affinity of the cells for combined uptake and metabolism of tryptophan” value (COS-7 cells [2]; COS-7, perfusion) was 2.6 ± 1.1 µM.

With CNC(C)(C)C(=O)O [N-(methylamino)isobutyric acid] the “Effect on uptake rate of 100 μM L-tryptophan” value (COS-7 cells [2]) was “did not decrease uptake rates”.

With CC[C@H](C)[C@H](N)C(=O)O [isoleucine] the “Tryptophan export … by extracellular amino acid” value (COS-7 cells [2]) was “able to promote tryptophan export”.

For N[C@@H](Cc1c[nH]cn1)C(=O)O [L-histidine], the “Export … (FRET ratio decrease)” value (KB cells) was “decreased” and the “Tryptophan export … by extracellular amino acid” value (COS-7 cells [2]) was “export of tryptophan from the cytosol”.

For Nc1c(O)cccc1C(=O)CC(N)C(=O)O (centres unmarked) [HK, 3-hydroxy-kynurenine], the “FLIPW-CTYT FRET response or interference” value (FLIPW-CTYT) was “did not result in a FLIPW-CTYT FRET response”, the “Export … (FRET ratio decrease)” value (KB cells) was “exported” and the “Tryptophan export induced” value (COS-7 cells [2]) was “tryptophan export”.

For CSCC[C@H](N)C(=O)O [methionine], the “Tryptophan export … by extracellular amino acid” value (COS-7 cells [2]) was “able to promote tryptophan export”.
